Format in all cases: cell-based
The test system of test [1] is Staphylococcus epidermidis CPHL A2. The experiment in a line: MIC test, agar dilution with Steers multiwell inoculator. Conditions: CPHLA2, TSA dishes, 24 h at 35°C, read-out: Minimum Inhibiting Concentration. Here is the method: (§1) As to the antibacterial activity, there was determined the Least (Minimum) Inhibiting Concentration (MIC), by working according to the following operative conditions.
(§2) There were used suspensions of test germs (5 gram-positive and 15 gram-negative) having a known titre, kept freezed at -80°C and diluted, at the time of use, in peptonized water up to a concentration of 1-2.10⁷ cfu/ml.
(§3) A few mg of the products, according to the invention were weighed sufficient for preparing parent solutions in DMSO + NaOH (1N) containing 2560 µg/ml (64µg/ml/dish). From the thus prepared parent solutions there were prepared 12 serial dilutions (1:2) down to the concentration of 1.25 µg/ml.
(§4) 0.5 ml of the different dilutions of each product were distributed on dishes containing 19.5 ml of agarized medium (TSA), maintained in a fluid state at the temperature of 50°C. After slight stirring, the dishes were made to solidify and dry under hood (laminar flow).
(§5) The MIC tests (Least or "Minimum" Inhibiting Concentration) were performed by using a Steers multiwell inoculator having 36 wells, each containing 200 µl of bacterial suspension.
(§6) After inoculation, the dishes were placed into a thermostat and checked after 24 h of incubation at 35°C.
(§7) The MIC is defined as the lowermost product concentration (µg/ml) inhibiting the visible growth of the microorganisms.
On the technique in general: In agar dilution the substance is mixed into plates at graded concentrations.

In the next test the test system is Escherichia coli CNUR 1. Described as above. The settings on record: CNUR1, TSA dishes, 24 h at 35°C, read-out: Minimum Inhibiting Concentration. Here is the method: as §1, §2, §3, §4, §5, §6, §7
A further test relates to Shighella enteritidis. The test is described as above. Conditions: TSA dishes, 24 h at 35°C, read-out: Minimum Inhibiting Concentration. On the procedure: as §1, §2, §3, §4, §5, §6, §7
The next test relates to Proteus vulgaris CNUR 6. The test is described as above. Conditions: CNUR6, TSA dishes, 24 h at 35°C, read-out: Minimum Inhibiting Concentration. On the procedure: as §1, §2, §3, §4, §5, §6, §7
Test [2] relates to Pseudomonas aeruginosa CNUR 4. The test is described as above. The settings on record: CNUR4, TSA dishes, 24 h at 35°C, read-out: Minimum Inhibiting Concentration. On the procedure:
as §1, §2, §3, §4, §5, §6, §7

The subject of test [3] is Staphylococcus epidermidis HCF Berset C. The description is as above. The settings on record: TSA dishes, 24 h at 35°C, read-out: Minimum Inhibiting Concentration. Here is the method:
as §1, §2, §3, §4, §5, §6, §7

In test [4] the test system is Enterobacter cloacae OMNF 1174. The description is as above. The settings on record: OMNF1174, TSA dishes, 24 h at 35°C, read-out: Minimum Inhibiting Concentration. Here is the method: as §1, §2, §3, §4, §5, §6, §7
The subject of test [5] is Pseudomonas aeruginosa ATCC 9027. The test is described as above. Conditions: ATCC9027, TSA dishes, 24 h at 35°C, read-out: Minimum Inhibiting Concentration. Here is the method: as §1, §2, §3, §4, §5, §6, §7
The next test relates to Escherichia coli ISF 432. The description is as above. Conditions: ISF432, TSA dishes, 24 h at 35°C, read-out: Minimum Inhibiting Concentration. On the procedure:
as §1, §2, §3, §4, §5, §6, §7

The subject of test [6] is Klebsiella pneumoniae ATCC 10031. The description is as above. The settings on record: ATCC10031, TSA dishes, 24 h at 35°C, read-out: Minimum Inhibiting Concentration. On the procedure:
as §1, §2, §3, §4, §5, §6, §7

The next test relates to Escherichia coli 120. The description is as above. Conditions: TSA dishes, 24 h at 35°C, read-out: Minimum Inhibiting Concentration. Here is the method:
as §1, §2, §3, §4, §5, §6, §7

Test [7] has as its system Pseudomonas aeruginosa CNUR 2. The description is as above. Conditions: CNUR2, TSA dishes, 24 h at 35°C, read-out: Minimum Inhibiting Concentration. Here is the method:
as §1, §2, §3, §4, §5, §6, §7

The test system of test [8] is Staphylococcus aureus ATCC 6538. The description is as above. The settings on record: ATCC6538, TSA dishes, 24 h at 35°C, read-out: Minimum Inhibiting Concentration. On the procedure: as §1, §2, §3, §4, §5, §6, §7
The subject of test [9] is Streptococcus facealis LEP Br. Described as above. The settings on record: TSA dishes, 24 h at 35°C, read-out: Minimum Inhibiting Concentration. On the procedure:
as §1, §2, §3, §4, §5, §6, §7

Test [10] relates to Providencia stuardii CNUR 5. The test is described as above. Conditions: CNUR5, TSA dishes, 24 h at 35°C, read-out: Minimum Inhibiting Concentration. On the procedure: as §1, §2, §3, §4, §5, §6, §7
Test [11] relates to Escherichia coli ATCC 8739. Described as above. Conditions: ATCC8739, TSA dishes, 24 h at 35°C, read-out: Minimum Inhibiting Concentration. On the procedure: as §1, §2, §3, §4, §5, §6, §7
A further test deals with Escherichia coli CNUR 8. The description is as above. Conditions: CNUR8, TSA dishes, 24 h at 35°C, read-out: Minimum Inhibiting Concentration. On the procedure:
as §1, §2, §3, §4, §5, §6, §7

Test [12] relates to Acinebacter calcoloaceticus OSMPV 1130. Described as above. The settings on record: TSA dishes, 24 h at 35°C, read-out: Minimum Inhibiting Concentration. Here is the method: as §1, §2, §3, §4, §5, §6, §7
The test system of test [13] is Enterobacter cloacae OMNF 1153. Described as above. Conditions: OMNF1153, TSA dishes, 24 h at 35°C, read-out: Minimum Inhibiting Concentration. On the procedure: as §1, §2, §3, §4, §5, §6, §7
Test [14] has as its system Staphylococcus aureus MPR 5. The test is described as above. Conditions: MPR5, TSA dishes, 24 h at 35°C, read-out: Minimum Inhibiting Concentration. On the procedure:
as §1, §2, §3, §4, §5, §6, §7

Another test relates to Gram -. The experiment in a line: MIC test, average over the 15 gram-negative test germs. Conditions: 24 h. Here is the method: as §1, §2, §3, §4, §5, §6, §7
The next test has as its system Gram +. The experiment in a line: MIC test, average over the 5 gram-positive test germs. Conditions: 24 h. Here is the method: as §1, §2, §3, §4, §5, §6, §7
[15] abbreviates: geometrical average of the MIC over the 15 Gram - strains, read-out: Geometrical Average.
Setting [16] is: mean log of the MIC over the 15 Gram - strains, read-out: Log (converted).
Where [17] appears, read: geometrical average of the MIC over the 5 Gram + strains, read-out: Geometrical Average.

≈ marks a conversion by molar mass, not a printed value. Read-outs that look alike come from different tables or passages of the source.

The text below walks through data of EP0531958A1, “6-Aminoquinolones, their synthesis and their use as antibacterial agents” (MEDIOLANUM FARMACEUTICI S.P.A., priority 1991, dated 1993).

Take `CN1CCN(c2c(N)c(N)c3c(=O)c(C(=O)O)cn(C4CC4)c3c2F)CC1` [Compound 28]: the MIC worked out at 4 µg/mL (≈ 10.7 µM) in test [1]; 0.25 µg/mL (≈ 0.666 µM) in the test with Escherichia coli CNUR 1; 0.25 µg/mL (≈ 0.666 µM) with Shighella enteritidis; 64 µg/mL (≈ 170 µM) in the test with Proteus vulgaris CNUR 6; 64 µg/mL (≈ 170 µM) in [2]; 4 µg/mL (≈ 10.7 µM) in [3]. Besides, the MIC in [4] turned out to be 0.12 µg/mL (≈ 0.32 µM); in [5] it was 4 µg/mL (≈ 10.7 µM); in the test with Escherichia coli ISF 432, 0.03 µg/mL (≈ 0.0799 µM); in test [6], 0.03 µg/mL (≈ 0.0799 µM); with Escherichia coli 120, 0.12 µg/mL (≈ 0.32 µM); in test [7], 8 µg/mL (≈ 21.3 µM). Moreover, the MIC in [8] is 2 µg/mL (≈ 5.33 µM); in test [9], 4 µg/mL (≈ 10.7 µM); in test [10], 2 µg/mL (≈ 5.33 µM); in test [11] it was 0.03 µg/mL (≈ 0.0799 µM); in the test with Escherichia coli CNUR 8, 0.12 µg/mL (≈ 0.32 µM); in test [12], 2 µg/mL (≈ 5.33 µM). Besides, the MIC in [13] was 0.25 µg/mL (≈ 0.666 µM); in test [14] it was 2 µg/mL (≈ 5.33 µM); in the test with Gram - (setting [15]), 0.592 µg/mL (≈ 1.58 µM); with Gram - (setting [16]), 0.592 µg/mL (≈ 1.58 µM); in the test on Gram + (setting [17]), 3.03 µg/mL; in the test with Gram + (read-out: Log (converted)) it was 3.03 µg/mL (≈ 8.08 µM).
Turning to `Cc1c(N2CCN(C)CC2)c(N)cc2c(=O)c(C(=O)O)cn(C3CC3)c12` [Compound 33], the MIC in test [1] worked out at 1 µg/mL (≈ 2.81 µM); in the test on Escherichia coli CNUR 1, 0.06 µg/mL (≈ 0.168 µM); with Shighella enteritidis, 0.06 µg/mL (≈ 0.168 µM); in the test on Proteus vulgaris CNUR 6 it was 8 µg/mL (≈ 22.4 µM); in test [2] it was 16 µg/mL (≈ 44.9 µM); in [3] it was 0.5 µg/mL (≈ 1.4 µM). Moreover, the MIC in [4] stood at 0.06 µg/mL (≈ 0.168 µM); in test [5], 2 µg/mL (≈ 5.61 µM); in the test on Escherichia coli ISF 432, 0.03 µg/mL (≈ 0.0842 µM); in test [6], 0.03 µg/mL (≈ 0.0842 µM); in the test with Escherichia coli 120 it was 0.06 µg/mL (≈ 0.168 µM); in test [7] it was 8 µg/mL (≈ 22.4 µM). Further, the MIC is 0.5 µg/mL (≈ 1.4 µM) in [8]; 8 µg/mL (≈ 22.4 µM) in test [9]; 2 µg/mL (≈ 5.61 µM) in test [10]; 0.06 µg/mL (≈ 0.168 µM) in [11]; 0.06 µg/mL (≈ 0.168 µM) with Escherichia coli CNUR 8; 2 µg/mL (≈ 5.61 µM) in test [12]. Moreover, the MIC in [13] is 0.25 µg/mL (≈ 0.701 µM); in test [14] it was 1 µg/mL (≈ 2.81 µM); with Gram - (setting [15]), 0.338 µg/mL (≈ 0.948 µM); in the test with Gram - (setting [16]), 0.338 µg/mL (≈ 0.948 µM); with Gram + (setting [17]), 1.15 µg/mL; with Gram + (read-out: Log (converted)), 1.15 µg/mL (≈ 3.22 µM).
`Cc1c(N2CCNCC2)c(N)cc2c(=O)c(C(=O)O)cn(C3CC3)c12` [Compound 34]: the MIC in [1] was determined as 1 µg/mL (≈ 2.92 µM); in the test with Escherichia coli CNUR 1, 0.12 µg/mL (≈ 0.35 µM); in the test on Shighella enteritidis, 0.06 µg/mL (≈ 0.175 µM); in the test on Proteus vulgaris CNUR 6 it was 8 µg/mL (≈ 23.4 µM); in test [2], 16 µg/mL (≈ 46.7 µM); in [3], 2 µg/mL (≈ 5.84 µM). For the same molecule, the MIC in [4] stood at 0.12 µg/mL (≈ 0.35 µM); in test [5], 4 µg/mL (≈ 11.7 µM); in the test on Escherichia coli ISF 432 it was 0.06 µg/mL (≈ 0.175 µM); in test [6], 0.06 µg/mL (≈ 0.175 µM); in the test on Escherichia coli 120, 0.12 µg/mL (≈ 0.35 µM); in [7] it was 16 µg/mL (≈ 46.7 µM). Further, the MIC was 1 µg/mL (≈ 2.92 µM) in test [8]; 8 µg/mL (≈ 23.4 µM) in [9]; 2 µg/mL (≈ 5.84 µM) in test [10]; 0.12 µg/mL (≈ 0.35 µM) in test [11]; 0.06 µg/mL (≈ 0.175 µM) in the test with Escherichia coli CNUR 8; 4 µg/mL (≈ 11.7 µM) in test [12]. Further, the MIC in test [13] was 0.25 µg/mL (≈ 0.73 µM); in test [14] it was 2 µg/mL (≈ 5.84 µM); in the test with Gram - (setting [15]), 0.51 µg/mL (≈ 1.49 µM); with Gram - (setting [16]) it was 0.513 µg/mL (≈ 1.5 µM); with Gram + (setting [17]), 2 µg/mL; with Gram + (read-out: Log (converted)) it was 2 µg/mL (≈ 5.84 µM).
